The values that follow come from patent publication US20170056380A1, “Systems, Methods, Techniques, and Compounds in Research and Treatment of Portal Hypertension and other Conditions” (priority 2014, published 2017).

Structures are written as SMILES. “Also recorded” adds a separate entry of the source.

In one assay the test system is eNOS. Briefly: eNOS phosphorylation (Ser1177) and total eNOS by immunoblotting in sinusoidal endothelial cells. The class given is cell-based, rat. The procedure: (§1) Cell isolation and culture. Sinusoidal endothelial cells were isolated from male Sprague-Dawley rats (450-500 g) (Harlan, Indianapolis, Ind.). In brief, after in situ perfusion of the liver with 20 mg/100 mg pronase (Roche Molecular Biochemicals, Indianapolis, Ind.), followed by collagenase (Worthington Biochemical, Lakewood, N.J.), dispersed cell suspensions were removed from a layered discontinuous density gradient of 8.2 and 15.6% Accudenz (Accurate Chemical and Scientific, Westbury, N.Y.), further purified by centrifugal elutriation (18 ml/min flow), and were grown in medium containing 20% serum (10% horse/calf). The purity of endothelial cells was documented by their uptake of fluorescently labeled di-l-acetoacetylated low-density lipoprotein as described (21). Only primary sinusoidal endothelial isolates of >95% purity were used for study. Experiments were performed with cells frorrr a minimum three different isolations (for all experiments).
(§2) Immunoblotting, Immunoblotting was performed by using specified primary antibodies, including anti-eNOS antibody (1:1,000; BD Transduction Laboratories, San Jose, Calif.), anti-phospho-eNOS-Ser^1177 (1:1,000; BD Transduction Laboratories or Cell Signaling Technology), anti-phospho-Akt, anti-Akt (Cell Signaling Technology, Beverly, Mass.), and horseradish peroxidase-conjugated secondary antibody. Specific signals were visualized using enhanced chemiluminescence as per the manufacturer's instructions and were scanned and quantitated with standard software.
(§3) Animal model of liver injury and portal hypedension. Liver injury and portal hypertension were induced by performing bile duct ligation in 450- to 500-gram male retired breeder Sprague-Dawley rats as described in Liu and 20- to 25-gram male BALB/c mice. Briefly, bile duct ligation was performed by surgical isolation and ligation of the common bile duct. This model creates a portal-based fibrogenic response and portal hypertension 10-14 days after surgery (Liu). For study of injured sinusoidal endothelial cells, we used the rat model of bile duct ligation (10-14 days postsurgery); for in vivo study (primarily to conserve the use of active compound), we used the mouse model of bile duct ligation (examining portal pressure 4 wk postsurgery). In sham-operated rats or mice, laparotomy without isolation and section of the bile duct was performed. Studies were approved by the local Institutional Animal Care and Use Committees. Portal pressure measurement. Portal hypertension was induced in male BALB/c mice by bile duct ligation as above. Cicletanine (5 mg·kg^−1·day^−1) or vehicle was given by gavage as a single daily dose for 10 days before portal pressure measurement as described in Liue. In brief, mice were anesthetized, and an intravenous catheter (Becton Dickinson Vascular Access, Sandy, Utah) was introduced in the portal vein and secured with a silk tie. A calibrated low-pressure transducer (Digi-Med, Louisville, Ky.) was connected to the portal vein catheter, and portal pressure was recorded continuously using the Digi-Med Integrator 200 System (Digi-bled).

Assay [1] relates to bile duct-ligated (BDL) mice. Nature of the assay: Portal pressure measurement in bile duct-ligated and sham-operated mice. Conditions: 5 mg·kg−1·day−1 by gavage for 10 days. The class given is in vivo, BALB/c mice. The procedure:
as §3, with “In brief, mice were anesthetized, and an intravenous catheter (Becton Dickinson Vascular Access, Sandy, Utah) was introduced in the portal vein and secured with a silk tie.” left out

Another assay has as its system protein kinase B (Akt). Briefly: Akt phosphorylation (Ser473) and total Akt by immunoblotting in sinusoidal endothelial cells. It counts as cell-based, rat. The procedure:
as §1, §2
Animal model of liver injury and portal hypedension. Liver injury and portal hypertension were induced by performing bile duct ligation in 450- to 500-gram male retired breeder Sprague-Dawley rats as described in Liu and 20- to 25-gram male BALB/c mice. Briefly, bile duct ligation was performed by surgical isolation and ligation of the common bile duct. […] A calibrated low-pressure transducer (Digi-Med, Louisville, Ky.) was connected to the portal vein catheter, and portal pressure was recorded continuously using the Digi-Med Integrator 200 System (Digi-bled).
(A western blot detects proteins with antibodies after separation by electrophoresis.)

[2] abbreviates: cicletanine 100 nM, normal sinusoidal endothelial cells.
Setting [3] is: sinusoidal endothelial cells injured by bile duct ligation, 2 h.

On to `Cc1ncc2c(c1O)COC2c1ccc(Cl)cc1` (stereo not shown) [cicletanine, 3-(4-chlorophenyl)-1,3-dihydro-7-hydroxy-6-methylfuro-(3,4-c) pyridine], for which the “phosphorylation of eNOS, dose dependence” value in the assay with eNOS (50 or 100 nM, 2 h, normal sinusoidal endothelial cells) is reported as “increased in a dose-dependent manner”. For the same molecule, the “time after exposure of greatest eNOS phosphorylation” value with eNOS (cicletanine 100 nM, 0-4 h) was 1 h. Besides, the “eNOS phosphorylation at Ser1177” value with eNOS (setting [2]) is recorded as “stimulated; also recorded: increased”. Also, the “total eNOS expression” value in the assay with eNOS (setting [2]) is “unchanged”. Further, the eNOS phosphorylation result in the assay on eNOS (setting [3]) is “restored eNOS phosphorylation to above basal levels”. For the same molecule, the portal pressure entry in assay [1] (BDL mice) was “significantly reduced”; in assay [1] (sham-operated mice), “Slight and nonsignificant decreases”. Moreover, the “Akt phosphorylation at Ser473” value in the assay on protein kinase B (Akt) (50 or 100 nM, normal sinusoidal endothelial cells) is listed as “increased”. Moreover, the “total Akt expression” value in the assay with protein kinase B (Akt) (normal sinusoidal endothelial cells) is reported as “without a change”. Besides, the Akt phosphorylation entry in the assay with protein kinase B (Akt) (setting [3]) is “restored Akt phosphorylation to above normal levels”.
